US9771342B2, “Monascuspurpurones, preparation process thereof, and uses of the monascuspurpurones” (Food Industry Research and Development Institute, priority 2010, dated 2017)

Key:
[1] = system: 3T3-L1 preadipocytes; experiment: Enhancement of 3T3-L1 preadipocyte differentiation in insulin differentiation model (AdipoRed staining / triglyceride); assay type: cell-based; details: for Oil Red assay (% of control): insulin model, 3T3-L1 differentiation
Procedure: Preadipocytes were prepared according to the method described by Wald et al., (2007, “The small molecule harmine is an antidiabetic cell-type-specific regulator of PPARγ expression.” Cell Metabolism, 5(5): 357-370). Preadipocytes were cultured in DMEM (Dulbecco's Modified Eagle's Medium-high glucose, Sigma D-7777) containing 10% of fetal bovine serum (FBS) and incubated at 37° C. in a 5% CO2 incubator.
Before the differentiation induction experiments, the cells were plated into either 96- or 24-well plates (the concentration of cells in each well was about 2×10^4/cm^2). The plates were incubated for about two days to allow the cells to proliferate to confluence, and then maintained for another two days. The medium was changed to different differentiation media according to different experiments. The day of switching to differentiation medium was designated as day zero.
The differentiation medium used in insulin differentiation model was DMEM with 10% FBS comprising 10 μg/ml of insulin. Differentiation media with various concentrations of Compound 1 were added to each well of the 24- or 96-well 3T3-L1 preadipocyte plates (the final concentration of Compound 1 in each well was 2 μg/ml, 5 μg/ml, 10 μg/ml, and 20 μg/ml, respectively). The control group was the culture with only the differentiation medium and no sample. The cultures were incubated at 37° C. in a 5% CO2 incubator for seven days (during the period, the differentiation medium and sample were replaced with fresh ones twice), and then the medium was replaced by DMEM with 10% FBS. The cultures were maintained until day 9 or day 10 . The cells of the experiment groups and control groups at day 9 or day 10 were stained with AdipoRed and the concentrations of triglyceride were analyzed.
The 96-well plates were rinsed with PBS, and 200 μl of PBS and 5 μl of AdipoRed reagent (Lonze Walkersville, Inc., Walkersville, Md., USA, Catalog No. PT-7009) were added to each well. After 10 to 15 minutes, the plates were read with a spectrofluorometer (Infinite M200) set at an excitation wavelength of 485 nm and an emission wavelength of 572 nm. The fluorescent data of the experiment group was divided by the fluorescent data of the control group to obtain a percentage of induction activity.
The 24-well plates were rinsed with PBS, and the cells were washed off with 0.1 ml of 1% Triton X 100 per well. The cells were then frozen, thawed and centrifuged (10,000 rpm/5 min) and the supernatant was collected. An aliquot of 0.05 ml of the supernatant was analyzed using Triglycerol assay Kit (Audit Diagnostics, Ltd.).
The protein amounts were analyzed using Bio-Rad Dc Protein assay reagent (Bio-Rad). […]

[2] = system: 3T3-L1 cells; experiment: Quantitative real-time PCR of adipocyte differentiation related gene expression; assay type: cell-based
Procedure: The upstream genes that regulate adipocyte differentiation have been previously reported (F. M. Gregoire, C. M. Smas and H. S. Sul, Understanding adipocyte differentiation. Physiological Reviews, 783 (1998), pp. 783-809.) Among them, aP2, LPL, PPARγ, adiponectin, GLUT4, GLUT1, and C/EBPα were assayed to monitor the regulation of 3T3-L1 preadipocyte differentiation. The housekeeping genes of β-actin and Glyceraldehyde 3-phosphate dehydrogenase (GADPH) were used as control. “do” represents the conditions of the 3T3-L1 preadipocytes before adding inducing agents. In the “NC” groups, the 3T3-L1 preadipocytes were not treated with any inducing agent. Both “do” and “NC” groups were the control groups. In the groups of “insulin,” “E,” and “troglitazone,” the 3T3-L1 preadipocytes were induced with insulin, Compound 1 and insulin, and troglitazone, respectively.
After culturing the 3T3-L1 cells for 9 days, insulin, Compound 1 and insulin, and troglitazone were added to the medium. The cells were further cultivated, and the samples were collected on day 4 (early adipocyte differentiation stage), day 7 (middle stage) and day 9 (late stage) for the following assays.
Total RNA was extracted from 3T3-L1 cells using TRIZOL reagent according to the manufacturer's instructions (GIBCO 15596-026; Molecular Research Center, Inc). 4 μg of total RNA from each sample were reverse-transcribed to cDNA according to the protocol of the reverse transcript system [RevertAid H Minus First Strand cDNA Synthesis Kit (Fementas K1632)] with the oligo (dT)18 primers. A TaqMan One-Step RT-PCR Master Mix reagent kit and inventory primer and probes (Applied Biosystems, Foster, Calif.) were applied for the quantitative real-time PCR followed by a TaqMan gene expression assay. The sequences aP2 (Mm00445878_ml), LPL (Mm00434770_ml), PPARγ (Mm01184322_ml), adiponectin (Mm00456425_ml), GLUT4 (Mm01245502_ml), GLUT1 (Mm01192270_ml), C/EBPα (Mm01265914_sl), C/EBPδ (Mm00786711_sl), β-actin (Mm01205647_gl) and GADPH (Mm99999915_gl) were amplified in the PCR. Levels of mRNAs for housekeeping genes (β-actin and GADPH) were also measured by the real-time PCR. After cDNA synthesis, the quantitative real-time PCR was performed with the ABI Prism 7300 instrument (Applied Biosystems, Foster City, Calif., USA) according to the manufacturer's protocol. The PCR conditions were 1 cycle of 50 ° C. for 2 min, then 95 ° C. for 10 min, followed by 40 cycles of 95 ° C. for 15 seconds and 60 ° C. for 1 min. The quantification was performed in duplicate and the experiments were repeated independently three times.

[3] = molecular target: T1, PPARγ-LBD (Homo sapiens, UniProt P37231); experiment: LanthaScreen TR-FRET PPAR Competitive Binding Assay; details: tested at 10-160 μg/ml, 2 hours at room temperature
T1 construct: 10 μL 4× PPARγ-LBD/Tb-anti-GST Ab; purchased Invitrogen PV4894
T1 sequence (P37231 238-503 limits assumed): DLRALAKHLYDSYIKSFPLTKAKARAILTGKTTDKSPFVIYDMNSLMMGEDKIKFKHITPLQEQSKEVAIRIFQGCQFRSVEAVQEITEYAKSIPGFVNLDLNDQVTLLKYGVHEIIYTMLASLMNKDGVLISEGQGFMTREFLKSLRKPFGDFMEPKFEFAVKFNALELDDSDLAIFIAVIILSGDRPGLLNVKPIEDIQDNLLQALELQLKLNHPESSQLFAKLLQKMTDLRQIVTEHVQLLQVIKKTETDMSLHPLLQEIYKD
Procedure: 10, 20, 40, 80 and 160 μg/ml of Compound 1 were tested in the ligand binding assay conducted following the manuals described in LanthaScreen TR-FRET PPAR Competitive Binding Assay kits (Invitrogen New York, N.Y. Catalog no. PV4894). In a 96-well microtiter plate, the reagents were pipetted into each well in the following order: 20 μL 2× Test Compound, 10 μL 4× Fluormone™ Pan-PPAR Green and 10 μL 4× PPARγ-LBD/Tb-anti-GST Ab in a total assay volume of 40 μl/well. The reagents were gently mixed by placing the microtiter plate on an orbital plate shaker for 30 seconds. The samples were incubated at room temperature (20-25° C.) for 2 hours in the dark allowing the binding of the samples to reach equilibrium. The fluorescent emission signal of each well was measured at 495 nm and 520 nm with an Absorbance Microplate Reader (Spectra Max M5 from Molecular Devices LLC).

[4] = day 4 (early stage), Compound 1 and insulin vs insulin group
[5] = day 7 (middle stage), Compound 1 and insulin vs insulin group
[6] = day 9 (late stage), Compound 1 and insulin vs insulin group
[7] = early, middle and late adipocyte differentiation stages

With “rel-(1S,7aR,3aR)-1-Hexanoyl-5,13-dimethyl-6-(2-oxopentyl)-7a,7-dihydrobenzofuran-2,4-dione [Compound 1]” the “Oil Red assay (% of control)” value ([1]; 2 μg/ml) was 127 ± 4 % of control, the “Oil Red assay (% of control)” value ([1]; 5 μg/ml) was 140 ± 5 % of control and the “Oil Red assay (% of control)” value ([1]; 10 μg/ml) was 148 ± 8 % of control. The “triglyceride droplets in differentiated adipocytes, inverted microscope” value ([1]; 2, 5 and 10 μg/ml vs control culture (insulin only), FIG. 4) was “more triglyceride droplets than the control culture”, the “expression of C/EBPα, increase compared to insulin group” value [2, 4] was “about 50%” and the “expression of GluT1 relative to insulin group” value [2, 4] was 0.6 fold. For the same substance, the “expression of PPARγ, increase compared to insulin group” value [2, 4] was “about 50%”, the “expression of adiponectin, increase compared to insulin group” value [2, 4] was “about 50%” and the “expression of GluT1 relative to insulin group” value [2, 5] was 0.3 fold. For the same substance, the “expression of LPL relative to insulin group” value [2, 5] was 0.3 fold, the “expression of PPARγ relative to insulin group” value [2, 5] was 1.8 fold and the “expression of aP2 relative to insulin group” value [2, 5] was 0.3 fold. For the same substance, the “expression of GluT1 relative to insulin control” value ([2]; day 9 (late stage), Compound 1 and insulin vs insulin control) was 0.6 fold, the “expression of C/EBPα relative to insulin group” value [2, 6] was 1.59 folds and the “expression of PPARγ relative to insulin group” value [2, 6] was 1.35 folds. For the same substance, the “expression of adiponectin relative to insulin group” value [2, 6] was 1.49 folds, the “effect on the expression of aP2, LPL, adiponectin, GLUT4, and GLUT1” value [2, 7] was “little effect” and the “effect on the expressions of PPARγ and C/EBPα” value [2, 7] was “can stimulate the expressions of PPARγ and C/EBPα”. For the same substance, the “PPARγ binding IC50” value [3] was 68 ± 21 µg/mL.
